In ChEMBL document CHEMBL6127039, “An update on small molecule compounds targeting synthetic lethality for cancer therapy” (Eur J Med Chem, 2024):
pIC50, pKi: −log10 of the molar value. Each block holds one compound with its values, some of them ahead of it.

Legend:
[1] = molecular target: Poly [ADP-ribose] polymerase 1 (Homo sapiens, UniProt P09874); assay: Inhibition of PARP-1 (unknown origin)
[2] = Inhibition of DNA-PK (unknown origin) expressed in human HeLa cells; format: cell-based
[3] = molecular target: Serine-protein kinase ATM (Homo sapiens, UniProt Q13315); assay: Inhibition of ATM (unknown origin)
[4] = test system: MDA-MB-436; assay: Antiproliferative activity against human MDA-MB-436 cells assessed as reduction in cell viability; format: functional, cell-based
[5] = molecular target: Serine/threonine-protein kinase ATR (Homo sapiens, UniProt Q13535); assay: Inhibition of human recombinant ATR incubated for 40 mins by fluorescence based analysis
Sequence of Serine/threonine-protein kinase ATR (Q13535 whole entry): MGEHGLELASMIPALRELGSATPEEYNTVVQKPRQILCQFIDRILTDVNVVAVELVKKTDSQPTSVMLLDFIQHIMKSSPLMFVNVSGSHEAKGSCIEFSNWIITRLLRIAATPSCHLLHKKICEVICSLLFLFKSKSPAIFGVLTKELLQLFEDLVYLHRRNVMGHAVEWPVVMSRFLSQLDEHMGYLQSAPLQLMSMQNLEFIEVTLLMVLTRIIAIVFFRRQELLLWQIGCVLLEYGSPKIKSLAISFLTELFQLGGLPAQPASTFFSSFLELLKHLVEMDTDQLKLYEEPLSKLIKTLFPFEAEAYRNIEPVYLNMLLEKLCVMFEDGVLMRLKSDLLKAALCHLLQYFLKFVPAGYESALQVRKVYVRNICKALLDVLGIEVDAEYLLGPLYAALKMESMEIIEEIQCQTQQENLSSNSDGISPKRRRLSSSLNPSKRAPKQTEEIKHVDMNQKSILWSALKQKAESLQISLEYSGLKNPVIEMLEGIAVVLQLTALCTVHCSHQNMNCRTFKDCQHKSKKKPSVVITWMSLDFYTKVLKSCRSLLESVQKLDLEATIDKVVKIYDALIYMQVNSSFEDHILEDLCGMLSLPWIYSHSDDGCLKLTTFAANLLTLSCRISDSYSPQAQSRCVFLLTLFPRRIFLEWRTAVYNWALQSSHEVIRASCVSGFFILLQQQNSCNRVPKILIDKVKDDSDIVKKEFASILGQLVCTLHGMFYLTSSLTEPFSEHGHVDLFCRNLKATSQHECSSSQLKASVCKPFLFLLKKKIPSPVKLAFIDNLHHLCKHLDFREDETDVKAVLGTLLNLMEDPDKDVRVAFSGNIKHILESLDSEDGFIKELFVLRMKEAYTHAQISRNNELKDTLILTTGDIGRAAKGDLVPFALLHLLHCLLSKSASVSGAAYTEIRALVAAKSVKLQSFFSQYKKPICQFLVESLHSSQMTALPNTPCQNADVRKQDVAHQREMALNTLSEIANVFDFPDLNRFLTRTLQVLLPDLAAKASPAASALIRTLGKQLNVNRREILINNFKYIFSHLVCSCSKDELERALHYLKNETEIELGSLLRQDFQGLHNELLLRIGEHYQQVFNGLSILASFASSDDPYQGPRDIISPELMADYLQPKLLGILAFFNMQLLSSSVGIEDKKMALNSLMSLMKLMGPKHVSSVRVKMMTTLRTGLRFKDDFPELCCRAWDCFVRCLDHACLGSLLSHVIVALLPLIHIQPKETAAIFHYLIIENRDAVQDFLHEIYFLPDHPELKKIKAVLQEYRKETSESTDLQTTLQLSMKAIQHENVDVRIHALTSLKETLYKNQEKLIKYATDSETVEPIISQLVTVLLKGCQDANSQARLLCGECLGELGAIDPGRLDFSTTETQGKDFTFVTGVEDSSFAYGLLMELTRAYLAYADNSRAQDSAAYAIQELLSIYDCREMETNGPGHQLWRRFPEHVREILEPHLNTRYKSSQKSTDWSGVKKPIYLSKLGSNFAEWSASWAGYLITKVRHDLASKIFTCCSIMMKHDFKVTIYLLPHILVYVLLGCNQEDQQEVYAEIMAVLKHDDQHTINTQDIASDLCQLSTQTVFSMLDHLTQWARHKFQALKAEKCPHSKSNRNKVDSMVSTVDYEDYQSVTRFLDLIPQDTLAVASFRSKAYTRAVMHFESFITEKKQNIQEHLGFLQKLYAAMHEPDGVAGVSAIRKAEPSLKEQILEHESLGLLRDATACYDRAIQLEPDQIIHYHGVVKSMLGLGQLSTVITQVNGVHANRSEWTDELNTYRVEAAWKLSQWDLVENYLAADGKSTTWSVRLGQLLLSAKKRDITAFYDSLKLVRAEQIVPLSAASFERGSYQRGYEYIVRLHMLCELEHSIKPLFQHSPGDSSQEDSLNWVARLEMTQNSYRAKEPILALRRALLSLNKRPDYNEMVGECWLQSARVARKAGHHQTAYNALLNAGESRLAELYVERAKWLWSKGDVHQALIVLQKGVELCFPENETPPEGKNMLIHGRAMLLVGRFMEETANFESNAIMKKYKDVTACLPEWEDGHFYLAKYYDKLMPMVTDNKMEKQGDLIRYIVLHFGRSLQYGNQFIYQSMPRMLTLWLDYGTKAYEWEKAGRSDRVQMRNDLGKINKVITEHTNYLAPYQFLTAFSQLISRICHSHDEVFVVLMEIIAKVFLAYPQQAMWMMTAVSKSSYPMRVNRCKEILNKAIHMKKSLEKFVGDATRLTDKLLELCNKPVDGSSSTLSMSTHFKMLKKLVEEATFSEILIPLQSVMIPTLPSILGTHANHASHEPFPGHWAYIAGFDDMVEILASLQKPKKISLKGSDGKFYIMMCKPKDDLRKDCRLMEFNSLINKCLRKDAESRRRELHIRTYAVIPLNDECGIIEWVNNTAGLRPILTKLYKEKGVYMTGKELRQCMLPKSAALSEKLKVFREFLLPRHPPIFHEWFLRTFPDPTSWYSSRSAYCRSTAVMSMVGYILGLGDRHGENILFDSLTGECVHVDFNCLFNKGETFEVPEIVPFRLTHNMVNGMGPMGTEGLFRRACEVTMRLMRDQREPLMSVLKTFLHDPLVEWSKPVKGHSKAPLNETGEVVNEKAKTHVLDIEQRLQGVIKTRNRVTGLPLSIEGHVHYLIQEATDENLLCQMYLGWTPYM

[6] = molecular target: Serine/threonine-protein kinase mTOR (Homo sapiens, UniProt P42345); assay: Inhibition of human mTOR
[7] = molecular target: T1, Serine/threonine-protein kinase Chk1 (Homo sapiens, UniProt O14757); assay: Inhibition of CHK1 (unknown origin)
T1 sequence (O14757 whole entry): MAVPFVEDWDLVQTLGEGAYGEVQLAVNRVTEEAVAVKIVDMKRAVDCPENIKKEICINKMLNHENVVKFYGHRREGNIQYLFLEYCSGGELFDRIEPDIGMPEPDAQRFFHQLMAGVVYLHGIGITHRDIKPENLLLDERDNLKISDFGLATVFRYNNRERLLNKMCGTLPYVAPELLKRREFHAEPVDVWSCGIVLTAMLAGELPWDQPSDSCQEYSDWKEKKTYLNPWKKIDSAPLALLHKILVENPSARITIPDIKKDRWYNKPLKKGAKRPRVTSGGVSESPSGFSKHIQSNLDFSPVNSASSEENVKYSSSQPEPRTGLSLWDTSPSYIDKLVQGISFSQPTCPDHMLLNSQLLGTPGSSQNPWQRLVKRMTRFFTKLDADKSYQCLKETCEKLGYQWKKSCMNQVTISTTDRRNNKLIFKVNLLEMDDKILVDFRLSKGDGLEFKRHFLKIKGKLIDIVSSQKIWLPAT

[8] = AUC (0 to t) in Sprague-Dawley rat at 20 mg/kg, po by LC-MS/MS analysis; format: ADME, organism-based; settings: in vivo
[9] = test system: MV4-11; assay: Antiproliferative activity against human MV4-11 cells assessed as reduction in cell viability incubated for 72 hrs by MTS assay; format: functional, cell-based; settings: MV4-11, 72 h
[10] = Half life in Sprague-Dawley rat at 20 mg/kg, po by LC-MS/MS analysis; format: ADME, organism-based; settings: in vivo
[11] = molecular target: Serine/threonine-protein kinase VRK2 (Homo sapiens, UniProt Q86Y07); assay: Inhibition of VRK2 (14 to 335 residues) (unknown origin) extracted from Escherichia coli BL21 (DE3)-R3 cells
Sequence of Serine/threonine-protein kinase VRK2 (Q86Y07 whole entry, the tested form may be a part): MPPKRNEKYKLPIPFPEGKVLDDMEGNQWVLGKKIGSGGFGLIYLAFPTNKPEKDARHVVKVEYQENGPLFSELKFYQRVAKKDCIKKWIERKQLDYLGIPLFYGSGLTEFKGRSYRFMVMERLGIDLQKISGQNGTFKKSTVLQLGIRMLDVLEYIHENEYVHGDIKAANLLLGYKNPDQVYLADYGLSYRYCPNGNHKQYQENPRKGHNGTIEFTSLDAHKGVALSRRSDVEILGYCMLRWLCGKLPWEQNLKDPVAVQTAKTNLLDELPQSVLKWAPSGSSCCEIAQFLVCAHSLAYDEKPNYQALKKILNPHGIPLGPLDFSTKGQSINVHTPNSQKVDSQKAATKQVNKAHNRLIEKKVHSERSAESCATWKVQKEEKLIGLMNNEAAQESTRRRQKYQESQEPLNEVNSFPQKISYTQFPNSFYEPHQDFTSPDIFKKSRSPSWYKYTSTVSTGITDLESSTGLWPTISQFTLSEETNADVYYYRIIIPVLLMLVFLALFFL

[12] = Antiproliferative activity against human HCT116-MTAP null cells assessed as reduction in cell growth incubated for 72 hrs by MTT assay; format: functional, cell-based
[13] = molecular target: T2, DNA repair protein RAD51 homolog 1 (Homo sapiens, UniProt Q06609); assay: Inhibition of RAD51 (unknown origin)
T2 sequence (Q06609 whole entry): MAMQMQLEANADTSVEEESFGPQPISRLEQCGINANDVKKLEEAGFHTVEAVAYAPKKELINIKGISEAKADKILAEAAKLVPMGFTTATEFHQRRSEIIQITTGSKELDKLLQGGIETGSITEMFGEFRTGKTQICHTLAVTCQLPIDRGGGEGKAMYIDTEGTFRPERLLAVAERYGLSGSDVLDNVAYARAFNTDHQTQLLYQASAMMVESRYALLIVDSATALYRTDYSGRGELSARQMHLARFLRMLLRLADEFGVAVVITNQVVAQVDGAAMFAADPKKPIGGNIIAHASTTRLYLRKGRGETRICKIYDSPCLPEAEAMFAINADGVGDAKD

[14] = molecular target: Protein arginine N-methyltransferase 5 (Homo sapiens, UniProt O14744); assay: Binding affinity to PRMT5 (unknown origin) assessed as inhibition constant
Sequence of Protein arginine N-methyltransferase 5 (O14744 whole entry): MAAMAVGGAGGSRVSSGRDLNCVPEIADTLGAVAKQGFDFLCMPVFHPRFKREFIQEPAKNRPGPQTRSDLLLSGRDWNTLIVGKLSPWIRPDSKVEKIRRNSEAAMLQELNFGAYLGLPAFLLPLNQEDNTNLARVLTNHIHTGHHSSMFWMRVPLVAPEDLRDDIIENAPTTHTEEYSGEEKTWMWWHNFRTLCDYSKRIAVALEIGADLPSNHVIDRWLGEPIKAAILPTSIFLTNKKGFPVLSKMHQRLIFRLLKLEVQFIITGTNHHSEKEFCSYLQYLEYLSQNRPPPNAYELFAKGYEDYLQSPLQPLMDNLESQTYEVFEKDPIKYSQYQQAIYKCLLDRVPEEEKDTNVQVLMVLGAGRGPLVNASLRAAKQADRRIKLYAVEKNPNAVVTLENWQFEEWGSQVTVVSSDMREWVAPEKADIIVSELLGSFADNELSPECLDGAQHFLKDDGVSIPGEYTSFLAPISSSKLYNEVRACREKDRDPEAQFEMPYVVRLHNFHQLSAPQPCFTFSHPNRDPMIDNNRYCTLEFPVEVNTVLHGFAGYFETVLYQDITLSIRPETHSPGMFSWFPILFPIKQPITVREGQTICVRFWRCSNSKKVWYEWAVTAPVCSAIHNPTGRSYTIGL

Sequence of Poly [ADP-ribose] polymerase 1 (P09874 whole entry): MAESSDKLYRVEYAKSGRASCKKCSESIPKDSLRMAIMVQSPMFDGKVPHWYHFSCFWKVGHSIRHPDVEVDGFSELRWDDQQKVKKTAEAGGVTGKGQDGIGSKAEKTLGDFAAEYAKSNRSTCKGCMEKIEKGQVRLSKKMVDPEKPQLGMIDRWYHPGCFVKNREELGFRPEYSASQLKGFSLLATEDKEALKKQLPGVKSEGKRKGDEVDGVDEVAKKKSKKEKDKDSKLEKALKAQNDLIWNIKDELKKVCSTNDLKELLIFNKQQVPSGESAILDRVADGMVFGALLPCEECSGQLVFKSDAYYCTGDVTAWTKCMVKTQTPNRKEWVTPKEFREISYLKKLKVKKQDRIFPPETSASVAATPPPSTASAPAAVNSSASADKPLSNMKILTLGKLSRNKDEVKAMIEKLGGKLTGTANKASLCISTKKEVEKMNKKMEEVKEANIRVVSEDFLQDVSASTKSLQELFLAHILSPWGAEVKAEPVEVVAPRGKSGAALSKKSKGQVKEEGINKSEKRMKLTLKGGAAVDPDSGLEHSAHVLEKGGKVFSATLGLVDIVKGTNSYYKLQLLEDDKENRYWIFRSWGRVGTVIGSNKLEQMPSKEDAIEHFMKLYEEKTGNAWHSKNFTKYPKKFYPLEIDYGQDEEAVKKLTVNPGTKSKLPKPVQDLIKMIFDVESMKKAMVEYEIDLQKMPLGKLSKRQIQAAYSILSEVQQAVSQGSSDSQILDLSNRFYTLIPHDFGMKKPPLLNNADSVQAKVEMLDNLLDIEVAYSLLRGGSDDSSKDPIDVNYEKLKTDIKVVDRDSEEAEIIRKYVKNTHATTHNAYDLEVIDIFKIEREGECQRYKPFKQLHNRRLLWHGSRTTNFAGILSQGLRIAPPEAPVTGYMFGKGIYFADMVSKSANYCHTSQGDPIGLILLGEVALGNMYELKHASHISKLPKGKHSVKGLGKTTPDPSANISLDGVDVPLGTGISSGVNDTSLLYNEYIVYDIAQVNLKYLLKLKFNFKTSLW

- pIC50 [2]: 8.40
SMILES: Cc1cc2ncc3n2cc1Nc1ncc2c(n1)n(c(=O)n2C)CCCCC3

- pIC50 [2]: 10.10
SMILES: Cc1cc(C(N)=O)ccc1Nc1ncc2c(n1)n(C1CCOCC1)c(=O)n2C

- pIC50 [2]: 6.96
SMILES: COc1cccc(NC(=O)c2cc(-c3ccc(CC4C(=O)N(c5cccc(C(=O)O)c5)N=C4C(F)(F)F)o3)ccc2Cl)c1 (stereo unspecified)

- pIC50 [4]: 4.62
SMILES: O=C(c1cc(Cc2n[nH]c(=O)c3ccccc23)ccc1F)N1CCN(C(=O)C2CC2)CC1 [OLAPARIB]

- pIC50 [7]: 8.37
- AUC(0-t) ([8]; Sprague-Dawley): 10700 ng·h/mL
SMILES: N#Cc1ncc(Nc2ncc(-c3ccccc3)s2)cc1N[C@@H]1CCNC1

- AUCt ([8]; po, 20 mg/kg): 1370 ng·h/mL
- pIC50 [9]: 7.46
- half-life [10]: 5.3 h
SMILES: Cn1cc(-c2cnc(Nc3ccc(C#N)nc3)nc2N[C@H]2CCCNC2)cn1

- pIC50 [2]: 6.62
SMILES: COc1cccc(NC(=O)c2cc(-c3ccc(CC4C(=O)N(c5cccc(-c6nnn[nH]6)c5)N=C4C)o3)ccc2Cl)c1 (stereo unspecified)

More lines, now with the values behind:

SMILES: Cc1ccoc1C(=O)N1CCCN(C(=O)c2ccc(-c3nc4c(C(N)=O)cccc4[nH]3)cc2)CC1
- pIC50 [1]: 7.64

SMILES: COc1cc2ncn(-c3cc(OCc4ccccc4C(F)(F)F)c(C(N)=O)s3)c2cc1OC [GW843682X]
- pIC50 [3]: 6.32

SMILES: C[C@@H]1COCCN1c1cc([C@]2(O)C[C@H]3CC[C@@H](C2)O3)c2cnn(-c3cc[nH]n3)c2n1 [CAMONSERTIB]
- pIC50 [5]: 9.00
- pIC50 [6]: 6.92

SMILES: C[C@@H]1COCCN1c1nc(-c2ccnn2C)c2c(n1)c(-c1ccn[nH]1)nn2C
- pIC50 [5]: 9.00

SMILES: Cn1c(=O)n2c3ccccc3oc3c(-c4ccc(OCCCN5CCCCC5)nc4)c(F)cc4ncc1c2c43
- pIC50 [3]: 9.35

SMILES: C[C@@H]1COC[C@H]2COc3c(nc(-c4ccnc5[nH]ccc45)nc3C(C)(C)C#N)N21
- pIC50 [5]: 7.80

SMILES: CC(C)CCN1c2nc(Nc3cc(F)c(O)c(F)c3)ncc2N(C)C(=O)[C@@H]1C
- pIC50 [11]: 6.71

SMILES: Nc1nc2cc(F)c(C(=O)N(Cc3ccc(C(F)(F)F)cn3)C34CC(C3)C4)cc2c2c1COC2
- pIC50 [12]: 8.10

SMILES: COc1cccc(NC(=O)c2cc(-c3ccc(CC4C(=O)N(c5cccc(C(=O)O)c5)N=C4C)o3)ccc2Cl)c1 (stereo unspecified)
- pIC50 [2]: 6.30

SMILES: COc1cccc(NC(=O)c2cc(-c3ccc(/C=C4\C(=O)N(c5cccc(C(=O)O)c5)N=C4C)o3)ccc2Cl)c1
- pIC50 [2]: 5.51

SMILES: COC1/C=C/Cc2cnc3cc(C)c(cn23)Nc2ncc3c(n2)n(c(=O)n3C)CC1 (stereo unspecified)
- pIC50 [2]: 8.40

SMILES: O=c1nc(/C=C/c2cccnc2)n(Cc2ccc(I)cc2)c2ccccc12
- pIC50 [13]: 6.14

SMILES: O=c1nc(/C=C/c2cccnc2)n(Cc2ccccc2)c2ccccc12
- pIC50 [13]: 5.37

SMILES: Cc1cc2cc(C(=O)N(Cc3ccc(C(F)(F)F)cn3)[C@@H]3CCCc4cn[nH]c43)ccc2nc1N
- pKi [14]: 10.30
- pIC50 [12]: 8.00
